Reference: patent publication US4582820A, “Orally administered biologically active peptides and proteins” (Research Corporation, priority 1982, dated 1986)
Values joined by “and” are separate entries in the source; they are usually repeats but may differ in a detail not shown here. Equal values may be shown once. Read-outs that look alike come from different tables or passages of the source.

What was measured:
Mice = settings: cited from earlier work; for LD50: Mice
[1] = test system: diabetic (streptozotocin-treated) rats; experiment: Intravenous administration in diabetic rats, plasma glucose; type: in vivo; settings: for % Initial plasma glucose conc. / Actual plasma glucose: iv 0.5 μ/kg
Description: (§1) The term "diabetic rat" in the following tests refers to rats having been treated with streptozoticin by intravenous injection at a dosage of 75 mg/kg at least 4 days prior to the experiments in question. All rats used in the experiments had been fasting 12-18 hours prior to the experiments. Blood samples were taken at appropriate intervals as disclosed in the tables from a vein cannula which was implanted in a jugular vein. During the experiments, rats were awake, were able to move freely and had access to water (but no food). Plasma glucose was measured on a Beckman Glucose Analyzer 2 employing the enzymatic reaction of β-D-glucose with oxygen and measuring oxygen consumption rather than hydrogen peroxide formation.
A. Intravenous (iv) Administration of Regular and Modified Insulin in Diabetic Rats
From 15 min to 45 min after iv administration, the induced hypoglycemic effect was more pronounced in regular-insulin-treated aminals.

[2] = test system: diabetic (streptozotocin-treated) rats; experiment: Oral administration in diabetic rats, plasma glucose; type: in vivo, rat; settings: for Glucose / Glucose Level (% initial level): unmodified insulin oral 80 μ/kg
Description: as §1
B. Oral Administration of Regular and Modified Insulin (at 80μ/kg) in Normal and Diabetic Rats.
The three controls were regular insulin, a carrier complex of SDS:TEA, and a complex of albumin:SDS:TEA in the same weight ratio as than in the insulin complex; i.e., albumin:SDS:TEA=5:7.5:3.6.
The results of oral administrations of modified insulin and carrier complex (SDS:TEA=1:1 by mole) in the amount equivalent to that in the sandwich complex of insulin calculated based on 80μof insulin per kg of rat in normal rats are shown in Tables 3 and 4. The results of oral administrations of modified insulin, regular insulin, carrier complex and the sandwich complex of albumin (albumin:SDS:TEA in a weight ratio of 5:7.5:3.6) in diabetic rats are shown in Tables 5, 6, 7 and 8 respectively.

[3] = diabetic rats, 15 min, mean ± SD
[4] = diabetic rats, 15 min, single rats
[5] = diabetic rats, 30 min, mean ± SD
[6] = diabetic rats, 30 min, single rats
[7] = diabetic rats, 45 min, mean ± SD
[8] = diabetic rats, 45 min, single rats
[9] = diabetic rats, 60 min, mean ± SD
[10] = diabetic rats, 60 min, single rats
[11] = diabetic rats, 90 min, mean ± SD
[12] = diabetic rats, 90 min, single rats
[13] = diabetic rats, 120 min, mean ± SD
[14] = diabetic rats, 120 min, single rats
[15] = diabetic rats, 180 min, mean ± SD
[16] = diabetic rats, 180 min, single rats
[17] = diabetic rats, 300 min, mean ± SD
[18] = diabetic rats, 300 min, single rats

In the case of Cn1ccnc1 [1-methylimidazole], the LD50 (Mice; ipr.) is listed as 380 mg/kg, the “toxicity (in words)” value (Mice; mouse, in vivo) is listed as “very slight” and the LD50 (Mice; oral) is listed as 1500 mg/kg.

With “Insulin: Insulin (bovine pancreas, crystalline; 25.5 μ/mg; Sigma)” the “% Initial plasma glucose conc.” value [1, 3] was 63.8%, the Actual plasma glucose [1, 3] was 239 mg % and the “% Initial plasma glucose conc.” value [1, 4] was 46.1% and 63.8% and 57.7% and 84.5% and 47.9% and 82.5%. The Actual plasma glucose [1, 4] was 197 mg % and 176 mg % and 214 mg % and 359 mg % and 113 mg % and 372 mg %, the “% Initial plasma glucose conc.” value [1, 5] was 50.0% and the Actual plasma glucose [1, 5] was 185 mg %. For the same molecule, the “% Initial plasma glucose conc.” value [1, 6] was 43.9% and 53.6% and 16.2% and 69.7% and 36.9% and 79.4%, the Actual plasma glucose [1, 6] was 358 mg % and 159 mg % and 148 mg % and 60 mg % and 296 mg % and 87 mg % and the “% Initial plasma glucose conc.” value [1, 7] was 48.3%. The Actual plasma glucose [1, 7] was 169 mg %, the “% Initial plasma glucose conc.” value [1, 8] was 36.5% and 59.1% and 31.0% and 56.2% and 41.5% and 65.3% and the Actual plasma glucose [1, 8] was 296 mg % and 132 mg % and 163 mg % and 84 mg % and 239 mg % and 98 mg %. For the same molecule, the “% Initial plasma glucose conc.” value [1, 9] was 49.2 ± 15.4%, the Actual plasma glucose [1, 9] was 176 ± 83 mg % and the “% Initial plasma glucose conc.” value [1, 10] was 38.4% and 57.6% and 27.2% and 51.8% and 48.3% and 71.6%. For the same molecule, the Actual plasma glucose [1, 10] was 323 mg % and 139 mg % and 159 mg % and 101 mg % and 220 mg % and 114 mg %, the “% Initial plasma glucose conc.” value [1, 11] was 53.0 ± 9% and the Actual plasma glucose [1, 11] was 190 ± 69 mg %. For the same molecule, the “% Initial plasma glucose conc.” value [1, 12] was 45.4% and 53.6% and 50.4% and 46.1% and 51.7% and 70.7%, the Actual plasma glucose [1, 12] was 319 mg % and 168 mg % and 148 mg % and 187 mg % and 196 mg % and 122 mg % and the “% Initial plasma glucose conc.” value [1, 13] was 50.1 ± 10.1%. For the same molecule, the Actual plasma glucose [1, 13] was 177 ± 32 mg %, the “% Initial plasma glucose conc.” value [1, 14] was 42.3% and 58.0% and 56.9% and 35.1% and 60.6% and 47.8% and the Actual plasma glucose [1, 14] was 215 mg % and 153 mg % and 160 mg % and 211 mg % and 149 mg % and 143 mg %. For the same molecule, the “% Initial plasma glucose conc.” value [1, 15] was 57.8%, the Actual plasma glucose [1, 15] was 196 mg % and the “% Initial plasma glucose conc.” value [1, 16] was 58.8% and 59.8% and 76.3% and 37.9% and 67.8% and 45.9%. The Actual plasma glucose [1, 16] was 207 mg % and 213 mg % and 165 mg % and 283 mg % and 161 mg % and 160 mg %, the “% Initial plasma glucose conc.” value [1, 17] was 65.7% and the Actual plasma glucose [1, 17] was 225 mg %. The “% Initial plasma glucose conc.” value [1, 18] was 60.8% and 58.1% and 89.2% and 46.6% and 90.7% and 48.6%, the Actual plasma glucose [1, 18] was 219 mg % and 220 mg % and 167 mg % and 331 mg % and 198 mg % and 214 mg % and the “hypoglycemic effect (in words), rat #285” value ([1]; iv administration, diabetic rat #285 treated with both agents) was “progressive hypoglycemic effect”. The “hypoglycemic effect (in words)” value ([1]; iv administration, diabetic rats) was “progressive, systemic, hypoglycemic effects for five hours in all animals”, the “systemic hypoglycemic effect (in words)” value ([2]; oral administration) was “does not result in a systemic, hypoglycemic effect” and the Glucose ([2]; 15 min, Mean ± Std. Dev.) was 273 ± 112 mg/100 ml. The “Glucose Level (% initial level)” value ([2]; 15 min, Mean ± Std. Dev.) was 134 ± 20%, the Glucose ([2]; 15 min, single rats) was 145 mg/100 ml and 371 mg/100 ml and 214 mg/100 ml and 363 mg/100 ml and the “Glucose Level (% initial level)” value ([2]; 15 min, single rats) was 119% and 155.2% and 146.6% and 115%. The Glucose ([2]; 30 min, Mean ± Std. Dev.) was 325 ± 28 mg/100 ml, the “Glucose Level (% initial level)” value ([2]; 30 min, Mean ± Std. Dev.) was 104.7 ± 19.8% and the Glucose ([2]; 30 min, single rats) was 293 mg/100 ml and 343 mg/100 ml and 340 mg/100 ml. The “Glucose Level (% initial level)” value ([2]; 30 min, single rats) was 122.6% and 107.9% and 83.5%, the Glucose ([2]; 45 min, Mean ± Std. Dev.) was 327 ± 82 mg/100 ml and the “Glucose Level (% initial level)” value ([2]; 45 min, Mean ± Std. Dev.) was 105.6 ± 31.2%. For the same molecule, the Glucose ([2]; 45 min, single rats) was 270 mg/100 ml and 421 mg/100 ml and 290 mg/100 ml, the “Glucose Level (% initial level)” value ([2]; 45 min, single rats) was 113.0% and 132.4% and 71.3% and the Glucose ([2]; 60 min, Mean ± Std. Dev.) was 285 ± 87 mg/100 ml. For the same molecule, the “Glucose Level (% initial level)” value ([2]; 60 min, Mean ± Std. Dev.) was 124.1 ± 57.9%, the Glucose ([2]; 60 min, single rats) was 152 mg/100 ml and 309 mg/100 ml and 272 mg/100 ml and 329 mg/100 ml and 410 mg/100 ml and 239 mg/100 ml and the “Glucose Level (% initial level)” value ([2]; 60 min, single rats) was 124.6% and 129.3% and 77.5% and 225.3% and 128.9% and 58.7%. The Glucose ([2]; 120 min, Mean ± Std. Dev.) was 270 ± 118 mg/100 ml, the “Glucose Level (% initial level)” value ([2]; 120 min, Mean ± Std. Dev.) was 121.4 ± 79.4% and the Glucose ([2]; 120 min, single rats) was 122 mg/100 ml and 288 mg/100 ml and 251 mg/100 ml and 392 mg/100 ml and 411 mg/100 ml and 157 mg/100 ml. For the same molecule, the “Glucose Level (% initial level)” value ([2]; 120 min, single rats) was 100% and 120.5% and 71.5% and 268.5% and 129.2% and 38.6%, the Glucose ([2]; 180 min, Mean ± Std. Dev.) was 331 ± 127 mg/100 ml and the “Glucose Level (% initial level)” value ([2]; 180 min, Mean ± Std. Dev.) was 123.3 ± 76.1%. The Glucose ([2]; 180 min, single rats) was 296 mg/100 ml and 226 mg/100 ml and 502 mg/100 ml and 422 mg/100 ml and 211 mg/100 ml, the “Glucose Level (% initial level)” value ([2]; 180 min, single rats) was 123.9% and 64.5% and 243.8% and 132.7% and 51.8% and the Glucose ([2]; 300 min, Mean ± Std. Dev.) was 282 mg/100 ml. The “Glucose Level (% initial level)” value ([2]; 300 min, Mean ± Std. Dev.) was 116.1 ± 75.0%, the Glucose ([2]; 300 min, single rats) was 290 mg/100 ml and 189 mg/100 ml and 342 mg/100 ml and 391 mg/100 ml and 196 mg/100 ml and the “Glucose Level (% initial level)” value ([2]; 300 min, single rats) was 121.3% and 53.8% and 234.2% and 123.0% and 48.2%.
